Experimental data as given in patent EP0492902A1, “Substituted pyridine derivatives for use in the treatment of glaucoma” (MERCK SHARP & DOHME LTD., priority 1990, dated 1992).
Structures can show the parent of a compound that is named as a salt.

Test: Change in intraocular pressure (IOP) after administration of compound
Assay type: in vivo

| Structure (SMILES) | Change in IOP (Maximum mmHg change in intraocular pressure) (Concentration 0.5%) [mmHg] | Change in IOP (Maximum mmHg change in intraocular pressure) (Concentration 0.05%) [mmHg] |
| --- | --- | --- |
| Clc1cccc(C2CN3CCC2CC3)n1 (stereo not shown) [Description D, 3-[2-(6-Chloropyridin)yl]-1-azabicyclo[2.2.2]octane Hydrogen Oxalate] | -3.0 | – |
| COc1cccc(C2CN3CCC2CC3)n1 (stereo not shown) [Description C, 3-[2-6-Methoxypyridin)yl]-1-azabicyclo[2.2.2]octane Dihydrochloride] | – | -3.0 |
| CCOc1cccc(C2CN3CCC2CC3)n1 (stereo not shown) [Description A, 3-[2-(6-Ethoxypyridin)yl]-1-azabicyclo[2.2.2]octane Hydrogen Oxalate] | – | -3.0 |
| COc1cccc(C2CN3CCC2C3)n1 (stereo not drawn) [Description B, Endo-3-[2-(6-methoxypyridin)yl]-1-azabicyclo[2.2.1]heptane Hydrogen Oxalate] | – | -4.5 |
